Where “and” joins values, the source holds several entries; their conditions need not be identical. Equal values may be shown once. Read-outs that look alike come from different tables or passages of the source.
Assays:
Pharmacokinetic profiles = assay type: in vivo; settings: rat, SD rats; for MRT inf: read-out: MRT0-∞
DYRK4 = target: T1, DYRK4 (Homo sapiens, UniProt Q9NR20); test: DYRKs kinase activity assay (33P-ATP, DYRKtide substrate): DYRK4; assay type: biochemical; settings: for % Inhibition DYRK4: duplicates
T1 construct: purchased Reaction Biology Corporation (assay service)
T1 sequence (Q9NR20 1-520): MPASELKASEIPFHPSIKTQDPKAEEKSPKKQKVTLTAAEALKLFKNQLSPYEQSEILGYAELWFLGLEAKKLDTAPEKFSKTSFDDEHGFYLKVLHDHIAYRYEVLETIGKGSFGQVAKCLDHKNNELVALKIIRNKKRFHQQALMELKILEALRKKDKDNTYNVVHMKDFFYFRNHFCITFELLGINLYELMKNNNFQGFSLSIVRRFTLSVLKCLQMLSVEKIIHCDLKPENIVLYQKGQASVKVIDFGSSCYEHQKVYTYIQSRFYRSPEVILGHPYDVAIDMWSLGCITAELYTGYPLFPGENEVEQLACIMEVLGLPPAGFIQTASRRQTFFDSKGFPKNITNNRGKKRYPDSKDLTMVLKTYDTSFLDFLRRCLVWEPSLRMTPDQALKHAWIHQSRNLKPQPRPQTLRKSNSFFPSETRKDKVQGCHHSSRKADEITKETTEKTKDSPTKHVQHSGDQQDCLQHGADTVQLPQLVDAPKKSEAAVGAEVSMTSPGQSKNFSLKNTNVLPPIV

[1] = SD, serum, po, 10 mg/kg, PO 10 mg/kg, read-out: Con. (individual rats NO.1-3)
[2] = SD, serum, po, 10 mg/kg, PO 10 mg/kg, read-out: Con. Mean
[3] = Sprague-Dawley, serum, iv, 1 mg/kg, IV 1 mg/kg, read-out: Con. (individual rats NO.1-3)
[4] = Sprague-Dawley, serum, iv, 1 mg/kg, IV 1 mg/kg, read-out: Con. Mean

Which results are given for CCN1CCN(C(=O)c2ccc(Nc3ncc(F)c(-c4ccc5nc(N(C)C)sc5c4)n3)nc2)CC1 [YK-2-69]?
concentration at 4 h (Pharmacokinetic profiles; SD, serum, po, 10 mg/kg, PO 10 mg/kg, 4 h, read-out: Con. Mean): 663 ng/mL; concentration at 6 h (Pharmacokinetic profiles; [1]): 685 ng/mL; concentration at 6 h (Pharmacokinetic profiles; [2]): 589 ng/mL; concentration at 8 h (Pharmacokinetic profiles; [1]): 507 ng/mL; concentration at 8 h (Pharmacokinetic profiles; [2]): 483 ng/mL; concentration at 12 h (Pharmacokinetic profiles; [1]): 309 ng/mL; concentration at 12 h (Pharmacokinetic profiles; [2]): 269 ng/mL; concentration at 24 h (Pharmacokinetic profiles; [1]): 67.9 ng/mL; concentration at 24 h (Pharmacokinetic profiles; [2]): 57.4 ng/mL; concentration at 0.033 h (Pharmacokinetic profiles; Sprague-Dawley, serum, iv, 1 mg/kg, IV 1 mg/kg, 0.033 h, read-out: Con. Mean): 974 ng/mL; concentration at 0.083 h (Pharmacokinetic profiles; [3]): 811 ng/mL; concentration at 0.083 h (Pharmacokinetic profiles; [4]): 781 ng/mL; concentration at 0.25 h (Pharmacokinetic profiles; [3]): 560 ng/mL; concentration at 0.25 h (Pharmacokinetic profiles; [4]): 524 ng/mL; concentration at 0.5 h (Pharmacokinetic profiles; [3]): 399 ng/mL; concentration at 0.5 h (Pharmacokinetic profiles; [4]): 421 ng/mL; concentration at 1 h (Pharmacokinetic profiles; [3]): 265 ng/mL; concentration at 1 h (Pharmacokinetic profiles; [4]): 310 ng/mL; concentration at 12 h (Pharmacokinetic profiles; in vivo, IV 1 mg/kg, read-out: Con. (individual rats NO.1-3)): 19.8 ng/mL; AUC(0-inf) (Pharmacokinetic profiles; serum, IV 1 mg/kg): 1500 ng·h/mL; Cmax (Pharmacokinetic profiles; serum, IV 1 mg/kg): 974 ng/mL; Tmax (Pharmacokinetic profiles; serum, IV 1 mg/kg): 0.0333 h; clearance (Pharmacokinetic profiles; serum, IV 1 mg/kg): 11.2 mL/min/kg; half-life (Pharmacokinetic profiles; serum, IV 1 mg/kg): 3 h; MRT inf (Pharmacokinetic profiles; serum, IV 1 mg/kg): 3.5 h; AUC(0-inf) (Pharmacokinetic profiles; serum, PO 10 mg/kg): 8380 ng·h/mL; Cmax (Pharmacokinetic profiles; serum, PO 10 mg/kg): 674 ng/mL; Tmax (Pharmacokinetic profiles; serum, PO 10 mg/kg): 4 h; half-life (Pharmacokinetic profiles; serum, PO 10 mg/kg): 5 h; bioavailability (Pharmacokinetic profiles; serum, PO 10 mg/kg vs IV 1 mg/kg, read-out: F (oral bioavailability)): 56%; MRT inf (Pharmacokinetic profiles; serum, PO 10 mg/kg): 8.9 h; IC50 (DYRK4): > 1000 nM; % Inhibition DYRK4 (DYRK4; 0.000762079 µM): 1.66%; % Inhibition DYRK4 (DYRK4; 0.00228624 µM): -2.93% and -3.51%; % Inhibition DYRK4 (DYRK4; 0.00685871 µM): 3.37%; % Inhibition DYRK4 (DYRK4; 0.0205761 µM): 5.66%; % Inhibition DYRK4 (DYRK4; 0.0617284 µM): 18.67%; % Inhibition DYRK4 (DYRK4; 0.185185 µM): 25.42%; % Inhibition DYRK4 (DYRK4; 0.555556 µM): 42.15%; % Inhibition DYRK4 (DYRK4; 1.66667 µM): 56.81%; % Inhibition DYRK4 (DYRK4; 5 µM): 64.30%; inhibition at 0.000762079 µM (DYRK4; read-out: % Inhibition DYRK4, 0.000762079 µM, duplicates): 2.99%; inhibition at 0.00685871 µM (DYRK4; read-out: % Inhibition DYRK4, 0.00685871 µM, duplicates): 4.77%; inhibition at 0.0205761 µM (DYRK4; read-out: % Inhibition DYRK4, 0.0205761 µM, duplicates): 7.57%; inhibition at 0.0617284 µM (DYRK4; read-out: % Inhibition DYRK4, 0.0617284 µM, duplicates): 21.2%; inhibition at 0.185185 µM (DYRK4; read-out: % Inhibition DYRK4, 0.185185 µM, duplicates): 29.7%; inhibition at 0.555556 µM (DYRK4; read-out: % Inhibition DYRK4, 0.555556 µM, duplicates): 42.1%; inhibition at 1.66667 µM (DYRK4; read-out: % Inhibition DYRK4, 1.66667 µM, duplicates): 54.7%; inhibition at 5 µM (DYRK4; read-out: % Inhibition DYRK4, 5 µM, duplicates): 64.8%; selectivity over DYRK4 (DYRK4; vs DYRK2): more than 100 fold

Source: publication PMC9133015 (Nature Communications, 2022)
